What all share (assay type): in vivo
Test [1] relates to methionine sulfoximine (MSO)-induced hyperammonemia. The following applies: for ammonemia: mean ± MSE. The method, then: (§1) Appl. Neurobiol. 11: 129-139, as follows.
(§2) Male CBA mice (Janvier) weighing between 23 and 27 grams are used after acclimatization for at least 4 days in the animal house (t°=22±2° C.; housing conditions are as follows: SAFE “A04” food; drinking water: tap water; nycthemeral cycle: 12 h/12 h (light: 7 h/19 h-dark: 19 h/7 h)).
(§3) On test day, mice are weighed, marked and placed in individual cages. At t ═O minutes, MSO (0.1 mL/10 g) is administered intraperitoneally, and the mice are carefully observed for 8 hours.
(§4) Stiripentol (0.1 mL/10 g) is administered intraperitoneally at different times with respect to MSO.
Results are expressed as the mean value±MSE.

Test [2] deals with methionine sulfoximine (MSO)-induced convulsions. The procedure:
as §1, §2
On reception, mice are grouped in batches of 8 to 10 in 1500 U cages (floor area 1500 cm2) with bedding and sizzle dry (SDS) enrichment, in line with the ethical recommendations of European Parliament Directive 2010/63/EU (Sep. 22, 2010).
as §3
The parameters evaluated are the general condition of the animals, according to the Irwin grid (Irwin 1968), the number of convulsions, their onset times and mortality. Animals are euthanized as soon as limit points are reached, or at the end of the 8-hour observation period, according to the ANI07 procedure approved by the Ethics Committee.
as §4
Stiripentol (batch 176) was suspended in 5% (v/v) Tween 80 and 0.9% NaCl.
Results are expressed as the mean value±MSE. The statistical tests used are: • Fisher's exact test for percentages of convulsions and mortality, to determine a significant difference between groups at the 5% threshold, • A one-factor analysis of variance for the assays, to determine whether the pharmacological effect observed is significant at the 5% level (SigmaPlot 3.1 software).
Appl. Neurobiol. 11: 129-139.

Another test relates to ammonia. Description: Specific effect of stiripentol on ammonemia (without MSO), ABCAM ammonia assay kit. The note with it: stiripentol 300 mg/kg intraperitoneally without methionine sulfoximine, mice. The method, then: Blood is collected under isoflurane anesthesia by cardiac puncture (0.5 to 1.0 mL per mouse) to determine ammonia levels. In the case of brain and blood sampling, the mouse is rapidly sacrificed by decapitation: the brain is removed and frozen in liquid nitrogen. The liver can then be removed and rapidly frozen in liquid nitrogen. Samples are stored at −80° C.
Stiripentol (0.1 mL/10 g) is administered intraperitoneally at different times with respect to MSO. […]
Ammonia is determined colorimetrically using a microplate reader (Dynex, model MRX), and an ABCAM kit (ref AB83360, ammonia assay kit) containing several reagents. This kit enables quantitative enzymatic determination of ammonium present in the samples. During the assay, ammonium is converted to a product that reacts with the OxiRed probe for quantification at 570 nm using a microplate reader. […] The kit, stored at −20° C., includes the following components: • Ammonia assay buffer (25 mL): ready to use, bring to room temperature before use; • OxiRed probe (200 μL): ready to use, warm to 37° ° C. to thaw DMSO; • Developer (1 vial): reconstitute with 220 μL of Ammonia assay buffer; • enzyme Mix (1 vial): reconstitute with 220 μL of Ammonia assay buffer; • Converting Enzyme (1 vial): reconstitute with 220 μl of Ammonia assay buffer, • 10 mM NH4Cl standard (100 μL): ready to use, keep on ice during use. […]

The mark [3] stands for this setting: stiripentol 300 mg/kg intraperitoneally, mice (conclusion).
[4] abbreviates: 300 mg/kg stiripentol intraperitoneally 30 minutes prior to 50 mg/kg MSO.
Where [5] appears, read: 300 mg/kg stiripentol intraperitoneally just prior to 50 mg/kg MSO.

The record followed here is patent US20240207221A1, “TREATMENT OF HYPERAMMONEMIA” (BIOCODEX, priority 2021, published 2024).

SMILES strings stand for the structures. Read-outs that look alike come from different tables or passages of the source.

As for `CC(C)(C)C(O)/C=C/c1ccc2c(c1)OCO2` (stereo not drawn) [stiripentol], the ammonemia in test [1] (300 mg/kg stiripentol 30 minutes prior to 50 mg/kg MSO (FIG. 1)) was found to be 448 ± 65 µM; in test [1] (300 mg/kg stiripentol just prior to 50 mg/kg MSO) it was 417 ± 51 µM; with ammonia (plasma, mean ± MSE), 176 ± 14 µM. The reduction of hyperammonemia came out at 41% in test [1] (300 mg/kg stiripentol 30 minutes prior to 50 mg/kg MSO, compared with the MSO-only group) and 32% in test [1] (300 mg/kg stiripentol just prior to 50 mg/kg MSO, versus MSO only). For the same compound, the “effect on MSO-induced hyperammonemia” value in test [1] (setting [3]) is given as “significantly reduces”. For the same compound, the convulsion rate in test [2] (setting [4]) turned out to be 45%; in test [2] (setting [5]) it was 50%. Besides, the mortality rate in test [2] (setting [4]) and in test [2] (setting [5]) was 25% each time. In addition, the “effect on methionine sulfoximine-induced convulsions and mortality” value in test [2] (setting [3]) was “significantly reduces”. In addition, in the test with ammonia, the “effect on ammonemia compared with the control group” value is “did not alter ammonemia”.
